Source: patent publication US20260028410A1, “TREATMENT OF GRAFT VERSUS HOST DISEASES USING ANTI-CD122 ANTIBODY” (FORTE SUBSIDIARY, INC., priority 2023, published 2026)
pKd: −log10 of the molar value.

Legend:
[1] = target: T1, Intermediate-affinity heterodimeric IL-βγ receptor (Homo sapiens, UniProt P14784+P31785); conditions: ligand affinity for IL-βγ receptor (CD122/CD132); cited from earlier work
T1 sequence (P14784 27-551): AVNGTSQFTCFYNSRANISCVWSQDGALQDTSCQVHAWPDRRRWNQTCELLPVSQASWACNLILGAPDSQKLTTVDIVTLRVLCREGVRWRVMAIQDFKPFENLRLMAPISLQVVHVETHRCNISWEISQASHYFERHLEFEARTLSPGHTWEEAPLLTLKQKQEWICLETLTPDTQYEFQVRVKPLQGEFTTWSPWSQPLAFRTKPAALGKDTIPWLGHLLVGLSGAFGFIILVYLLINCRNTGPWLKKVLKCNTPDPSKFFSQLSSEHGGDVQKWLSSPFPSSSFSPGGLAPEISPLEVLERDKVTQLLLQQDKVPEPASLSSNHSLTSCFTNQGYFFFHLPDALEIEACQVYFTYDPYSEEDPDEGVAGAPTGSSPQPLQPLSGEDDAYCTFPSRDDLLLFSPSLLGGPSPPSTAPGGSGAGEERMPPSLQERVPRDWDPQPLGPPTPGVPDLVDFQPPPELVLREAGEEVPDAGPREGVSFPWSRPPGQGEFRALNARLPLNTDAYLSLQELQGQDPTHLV
T1 sequence (P31785 23-369): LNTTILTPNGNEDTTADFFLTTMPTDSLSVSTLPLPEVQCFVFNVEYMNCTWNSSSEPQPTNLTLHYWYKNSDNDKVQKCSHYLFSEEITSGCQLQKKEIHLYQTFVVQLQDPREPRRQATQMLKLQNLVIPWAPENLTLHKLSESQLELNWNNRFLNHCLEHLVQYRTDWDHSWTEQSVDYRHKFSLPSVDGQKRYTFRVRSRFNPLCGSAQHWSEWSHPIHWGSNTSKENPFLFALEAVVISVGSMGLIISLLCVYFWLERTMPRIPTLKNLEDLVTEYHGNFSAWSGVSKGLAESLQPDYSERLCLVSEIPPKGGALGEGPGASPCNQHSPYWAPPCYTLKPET

[2] = target: high-affinity heterotrimer IL-αβγ receptor; conditions: ligand affinity for IL-αβγ receptor combinations; cited from earlier work
[3] = test system: human T and NK cell-mediated aGvHD (xenograft GvHD mouse model); assay: Acute GvHD xenograft mouse model, dose-ranging of Antibody 1 (Example 1), survival; type: in vivo, NCG-hIL-15 mice transplanted with human PBMCs; conditions: Day 14; 60 mcg each twice daily oral D5-D14; n=10
Method: A xenograft GvHD mouse model was utilized to study human T and NK cell-mediated aGvHD and the therapeutic effects of anti-CD122 antibody treatment therein. Female NCG-hIL-15 mice were irradiated at a dosage of 100 cGy on Day 1 of the protocol and human peripheral blood mononuclear cells (PBMCs) were transplanted via injection at a dosage of 1×10^7 cells/200 μL/mice via IV administration into the irradiated mice. PBMCs are immune cells that originate in the bone marrow and are secreted into the peripheral circulation forming critical components of the immune system. PBMCs are involved in humoral and cell-mediated immune function. […] Groups of 10 mice were used for each test category. A vehicle group (n=10) served as a negative control with no treatment administered (only a combination of vehicle treatments) following transplant. A positive control group (n=10) of mice treated with 60 mcg each of ruxolitinib twice daily by oral administration was included in the study design. Ruxolitinib-treated animals were treated via oral administration of ruxolitinib twice daily on D5, D6, D7, D8, D9, D10, D11, D12, D13, and D14. Three groups of Antibody 1 treated animals (n=10 for each group) were tested using a) 75 milligram per kilogram of body weight (mpk) of antibody, b) 125 mpk of antibody, and c) 175 mpk of antibody, respectively. […]

[4] = test system: human T and NK cell-mediated aGvHD (xenograft GvHD mouse model); assay: Acute GvHD xenograft mouse model, single vs combination therapy with Antibody 1 (Example 2), survival; type: in vivo, NCG-hIL-15 mice transplanted with human PBMCs; conditions: ruxolitinib 60 mpk twice-daily oral, Antibody 1 75 mpk once-daily IP, D5-D18
Method: (§1) A xenograft GvHD mouse model was utilized to study human T and NK cell-mediated aGvHD and the therapeutic effects of anti-CD122 antibody treatment in single or combination therapy approaches. Female NCG-hIL-15 mice were irradiated at a dosage of 100 cGy on Day 1 of the protocol and human peripheral blood mononuclear cells (PBMCs) were transplanted via injection at a dosage of 1×10^7 cells/200 μL/mice via IV administration into the irradiated mice according to the same xenograft GvHD mouse model design as in Example 1.
Treatment according to 3 different grouping of animals was begun on Day 5 following transplant, as shown in the study design of FIG. 3. Groups of 10 mice were used for each test category. A single treatment group, Group #1, (n=10) received ruxolitinib (at a dosage of 60 mpk) twice-daily by oral administration beginning on Day 5 and ending on Day 18. Days of treatment were D5, D6, D7, D8, D9, D10, D11, D12, D13, D14, D15, D16, D17, and D18. A combination therapy group, Group #2, (n=10) received ruxolitinib (at a dosage of 60 mpk) twice-daily by oral administration beginning on Day 5 and ending on Day 18. Days of treatment using ruxolitinib in Group #2 were D5, D6, D7, D8, D9, D10, D11, D12, D13, D14, D15, D16, D17, and D18. Group #2 animals separately received treatment with Antibody 1 (anti-CD122 antibody as described herein) at a dosage of 75 mpk once-daily by IP administration. Days of treatment using Antibody 1 in Group #2 were D5, D6, D7, D8, D9, D10, D11, D12, D13, D14, D15, D16, D17, and D18. A vehicle group, Group #3, (n=10) served as a negative control with vehicle-only administered following transplant received twice daily oral placebo (vehicle only) beginning on Day 5 and ending on Day 18. Days of oral placebo treatment were D5, D6, D7, D8, D9, D10, D11, D12, D13, D14, D15, D16, D17, and D18. […]
(§2) Day 18 was the end of study day for all treatment groups. Animals from all treatment groups were assessed daily beginning on Day 1 and ending on Day 18 for survival following transplant. […]

[5] = test system: human T and NK cell-mediated aGvHD (xenograft GvHD mouse model); assay: Acute GvHD xenograft mouse model, single vs combination therapy with Antibody 2 or Antibody 3 (Example 5), survival; type: in vivo, NCG-hIL-15 mice transplanted with human PBMCs
Method: as §1
Treatment according to 3 different grouping of animals was begun on Day 5 following transplant, as shown in the study design of FIG. 5. Groups of a sufficient number of mice were used for each test category in order to evaluate a significant difference between test groups. A single treatment group, Group #1, received ruxolitinib (at a dosage of 60 mpk) twice-daily by oral administration beginning on Day 5 and ending on Day 18. Days of treatment are D5, D6, D7, D8, D9, D10, D11, D12, D13, D14, D15, D16, D17, and D18. A combination therapy group, Group #2, received ruxolitinib (at a dosage of 60 mpk) twice-daily by oral administration beginning on Day 5 and ending on Day 18. Days of treatment using ruxolitinib in Group #2 were D5, D6, D7, D8, D9, D10, D1I, D12, D13, D14, D15, D16, D17, and D18. Group #2 animals separately receive anti-CD122 antibody therapy (at a dosage of 75 mpk) once-daily by IP administration. Days of treatment using anti-CD122 antibody in Group #2 were D5, D6, D7, D8, D9, D10, D11, D12, D13, D14, D15, D16, D17, and D18. A vehicle group, Group #3, served as a negative control with vehicle-only administered following transplant received twice daily oral placebo (vehicle only) beginning on Day 5 and ending on Day 18. Days of oral placebo treatment were D5, D6, D7, D8, D9, D10, D11, D12, D13, D14, D15, D16, D17, and D18. […]
as §2

Molecule	pKd [1]	pKd [2]	survival at study conclusion [3] [%]	survival rate at the end of the study ([4]; Day 18, n=10) [%]	Average survival time ([4]; up to Day 18, Mean ± SD) [days]	Median survival ([4]; up to Day 18) [days]	survival on Day 18 ([5]; Day 18, ruxolitinib 60 mpk twice-daily oral, anti-CD122 antibody 75 mpk once-daily IP, D5-D18, n=10) [%]	Median survival ([5]; aGvHD xenograft mice, treatment Day 5 to Day 18 (ruxolitinib 60 mpk twice-daily oral; anti-CD122 antibody 75 mpk once-daily IP), followed to Day 18) [days]	Average survival time ([5]; aGvHD xenograft mice, treatment Day 5 to Day 18 (ruxolitinib 60 mpk twice-daily oral; anti-CD122 antibody 75 mpk once-daily IP), followed to Day 18, Mean ± SD) [days]
IL15: cytokine interleukin 15	~9.00	~11.00							
N#CC[C@H](C1CCCC1)n1cc(-c2ncnc3[nH]ccc23)cn1 [ruxolitinib]			60	30	16.3 ± 3.4	17.5	0	14	13.20 ± 0.93
